The results in this text go back to patent US9763448B2, “Fungicidal mixtures I comprising strobilurin-type fungicides” (BASF SE, priority 2013, dated 2017).

Like-named read-outs stand apart in the source and are kept apart here.

Holding throughout (assay type): cell-based
Test [1] has as its system Phytophthora infestans. Conditions: 0.063 ppm, single compound; 7 days after inoculation, 18° C.
The subject of test [2] is Pyricularia oryzae. Conditions: single compound, 7 days after inoculation, 18° C.
Test [3] relates to Leptosphaeria nodorum. The experiment in a line: Microtest: activity against the wheat leaf spot pathogen Leptosphaeria nodorum (MTP, absorption at 405 nm). Conditions: 0.004 ppm, single compound; 7 days after inoculation, 18° C.

Turning to `CNC(=O)C(=N/OC)/C(C)=C\COc1ccn(-c2ccc(Cl)cc2F)n1` [I-13, (Z,2E)-5-[1-(4-chloro-2-fluoro-phenyl)pyrazol-3-yl]oxy-2-methoxyimino-N,3-dimethyl-pent-3-enamide], the figures for the Observed efficacy in test [1], in test [2] (0.00025 ppm) and in test [3] were 4%, 7% and 21%, respectively.

In turn, `OC(Cn1cncn1)(c1ccc(Oc2ccc(Cl)cc2)cc1C(F)(F)F)C1CC1` (stereo not drawn) [II-2, 1-[4-(4-chlorophenoxy)-2-(trifluoromethyl)phenyl]-1-cyclopropyl-2-(1,2,4-triazol-1-yl)ethanol] had an Observed efficacy in test [2] (0.016 ppm) of 6%.

With `CC(O)(Cn1cncn1)c1ccc(Oc2ccc(Cl)cc2)cc1C(F)(F)F` (stereo not drawn) [II-6, 2-[4-(4-chlorophenoxy)-2-(trifluoromethyl)phenyl]-1-(1,2,4-triazol-1-yl)propan-2-ol], the Observed efficacy in test [1] and in test [3] was 7% each time.
